# Experimental data: Sander's compilation of Henry's law constants
# Assay: Henry solubility constant Hcp at 298.15 K (mol/(m3 Pa))
# [1] = reference: Fenclová et al. (2014)
# [2] = reference: Souchon et al. (2004)
# [3] = reference: Warner et al. (1980)
# [4] = reference: Jönsson et al. (1982)
compound,measurement,setting,value
CCO [ethanol],Henry solubility constant Hcp,reference: Burnett (1963),2.1
same,Henry solubility constant Hcp,reference: Butler et al. (1935),1.9
same,Henry solubility constant Hcp,reference: Gupta et al. (2000),1.8
same,Henry solubility constant Hcp,reference: Harger et al. (1950),1.9
same,Henry solubility constant Hcp,reference: Jones (1983),1.9
same,Henry solubility constant Hcp,reference: Park et al. (1987),1.9
same,Henry solubility constant Hcp,reference: Pividal et al. (1992),3.1
same,Henry solubility constant Hcp,reference: Richon et al. (1985),2
same,Henry solubility constant Hcp,reference: Rohrschneider (1973),2.3
same,Henry solubility constant Hcp,reference: Snider and Dawson (1985),1.9
same,Henry solubility constant Hcp,reference: Straver and de Loos (2005),1.9
same,Henry solubility constant Hcp,reference: Ueberfeld et al. (2001),1.1
same,Henry solubility constant Hcp,reference: Vitenberg and Dobryakov (2008),1.8
same,Henry solubility constant Hcp,reference: Willey et al. (2017),1.8
C=COC(C)=O [ethenyl ethanoate],Henry solubility constant Hcp,reference: Böhme et al. (2008),0.02
C=Cc1ccccc1 [ethenylbenzene],Henry solubility constant Hcp,reference: Bissonette et al. (1990),0.0029
CCOC(=O)C(C)CC (configuration not stated) [ethyl 2-methylbutanoate],Henry solubility constant Hcp,reference: Pollien et al. (2003),0.0089
same,Henry solubility constant Hcp,reference: Roberts and Pollien (1997),0.027
CCOC(=O)CC(C)C [ethyl 3-methylbutanoate],Henry solubility constant Hcp,reference: Wieland et al. (2015),0.011
CCCC(=O)OCC [ethyl butanoate],Henry solubility constant Hcp,reference: Aprea et al. (2007),0.024
same,Henry solubility constant Hcp,[1],0.029
same,Henry solubility constant Hcp,reference: Landy et al. (1995),0.024
same,Henry solubility constant Hcp,reference: Landy et al. (1996),0.04
same,Henry solubility constant Hcp,[2],0.026
CCCCCCCCCC(=O)OCC [ethyl decanoate],Henry solubility constant Hcp,reference: Aprea et al. (2007),0.014
CCCCCC(=O)OCC [ethyl hexanoate],Henry solubility constant Hcp,reference: Aprea et al. (2007),0.014
same,Henry solubility constant Hcp,reference: Landy et al. (1995),0.0094
same,Henry solubility constant Hcp,reference: Landy et al. (1996),0.016
CCSC [ethyl methyl sulfide],Henry solubility constant Hcp,reference: Schuhfried et al. (2011),0.0042
CCCCCCCC(=O)OCC [ethyl octanoate],Henry solubility constant Hcp,reference: Aprea et al. (2007),0.011
CCOC(=O)CC [ethyl propanoate],Henry solubility constant Hcp,[1],0.041
CCC1CCCCC1 [ethylcyclohexane],Henry solubility constant Hcp,reference: Dohányosová et al. (2004),2e-05
same,Henry solubility constant Hcp,reference: Heidman et al. (1985),3.1e-05
COP(=S)(OC)Oc1ccc([N+](=O)[O-])c(C)c1 [fenitrothion],Henry solubility constant Hcp,reference: Metcalfe et al. (1980),11
CC(Cc1ccc(C(C)(C)C)cc1)CN1CCCCC1 (configuration not stated) [fenpropidin],Henry solubility constant Hcp,reference: Feigenbrugel and Le Calvé (2021),710
Fc1ccccc1 [fluorobenzene],Henry solubility constant Hcp,reference: Hartkopf and Karger (1973),0.0015
O=C(O)CF [fluoroethanoic acid],Henry solubility constant Hcp,reference: Bowden et al. (1998a),800
CF [fluoromethane],Henry solubility constant Hcp,reference: Glew and Moelwyn-Hughes (1953),0.00058
same,Henry solubility constant Hcp,reference: Swain and Thornton (1962),0.00058
C[C@@H]1CCC[C@]2(C)CCCC[C@@]12O [geosmin],Henry solubility constant Hcp,reference: Ömür-Özbek and Dietrich (2005),0.081
COc1cc(CC(C)=O)ccc1O [guaiacylacetone],Henry solubility constant Hcp,reference: McFall et al. (2020),12000
[He] [helium],Henry solubility constant Hcp,reference: Cady et al. (1922),3.7e-06
same,Henry solubility constant Hcp,reference: Friedman (1954),3.8e-06
same,Henry solubility constant Hcp,reference: Krause and Benson (1989),3.9e-06
same,Henry solubility constant Hcp,reference: Lannung (1930),3.8e-06
same,Henry solubility constant Hcp,reference: Morrison and Johnstone (1954),3.7e-06
same,Henry solubility constant Hcp,reference: von Antropoff (1910),6.3e-06
ClC1=C(Cl)C2(Cl)C3C(Cl)C=CC3C1(Cl)C2(Cl)Cl (configuration not stated) [heptachlor],Henry solubility constant Hcp,[3],0.0067
ClC1=C(Cl)C2(Cl)C3C4OC4C(Cl)C3C1(Cl)C2(Cl)Cl (configuration not stated) [heptachlorepoxide],Henry solubility constant Hcp,[3],0.31
CCCCCCC=O [heptanal],Henry solubility constant Hcp,reference: Buttery et al. (1965),0.06
same,Henry solubility constant Hcp,[2],0.035
CCCCCCC [heptane],Henry solubility constant Hcp,[4],4.2e-06
same,Henry solubility constant Hcp,reference: Park et al. (1997),5.5e-06
CCCCCCC(=O)O [heptanoic acid],Henry solubility constant Hcp,reference: Kim and Kim (2016),15
ClC1=C(Cl)C(Cl)(Cl)C(Cl)=C1Cl [hexachlorocyclopentadiene],Henry solubility constant Hcp,[3],0.0006
same,Henry solubility constant Hcp,reference: Wolfe et al. (1982),0.00037
ClC(Cl)(Cl)C(Cl)(Cl)Cl [hexachloroethane],Henry solubility constant Hcp,reference: Munz and Roberts (1986),0.0034
same,Henry solubility constant Hcp,reference: Munz and Roberts (1987),0.0025
same,Henry solubility constant Hcp,[3],0.001
Fc1c(F)c(F)c(F)c(F)c1F [hexafluorobenzene],Henry solubility constant Hcp,reference: Schröder et al. (2011),0.00029
FC(F)(F)C(F)(F)F [hexafluoroethane],Henry solubility constant Hcp,reference: Bonifácio et al. (2001),6.5e-07
same,Henry solubility constant Hcp,reference: Park et al. (1982),5.3e-07
same,Henry solubility constant Hcp,reference: Wen and Muccitelli (1979),5.6e-07
FC(F)=C(F)C(F)(F)F [hexafluoropropene],Henry solubility constant Hcp,reference: Maaßen (1995),6.8e-06
CCCCCC [hexane],Henry solubility constant Hcp,[4],5.9e-06
same,Henry solubility constant Hcp,reference: Park et al. (1997),7.4e-06
same,Henry solubility constant Hcp,reference: Tsonopoulos and Wilson (1983),6.7e-06
